Assay results taken from patent EP0549002A1, “Method for the preparation of an antiseptic composition containing clindamycin-hydrochloride and polymyxin” (priority 1991, dated 1993).

Experiments:
[1] = test system: Pasteurella haemolytica 3R188 and 6R132; assay: MIC by plate dilution method (horseblood-agar); type: cell-based; details: both P. haemolytica isolates; single agent; observed during 24 hours
Experimental: Two clinical isolates of Pasteurella haemolytica were studied. The bacteria were isolated from calves and identified. The isolates included P. haemolytica 3R188 and 6R132.
The strength of the inoculating suspension was 2 MacFarland. The plates were observed during 24 hours after incubation.

[2] = test system: Mycoplasma hyorhinis type strain BTS-7; assay: MIC by serial broth dilution method (Friis broth, glucose metabolism colour change); type: cell-based; details: single agent; read at day 5; 37°C aerobic
Experimental: Friis-broth was added to each well.

[3] = Acute toxicity (general statement); type: in vivo; details: in combination with Clindamycin; mammals and humans

For Polymyxin E (Colistin), the “minimal inhibitory concentrations (MICs)” value [1] was 1,6 µg/ml, the MIC [2] was over 50 µg/mL and the acute toxicity [3] was “strikingly reduced”.
